Results: patent US20060052421A1, “Conjugation agent” (Eastman Kodak Company, priority 2004, published 2006)

Experiments:
[1] = Thiol reactivity: substitution reaction of the conjugation agent with MESNA, followed by HPLC; conditions: for krel (MESNA): Table 2, water soluble conjugation agents, determined as for Table 1
Procedure: (§1) The measures of thiol reactivities, thiol chemoselectivities, and aqueous stabilities were determined by the rate constants for the corresponding processes, i.e., relative rate constants for reaction with thiol-containing groups (thiol reactivity), the ratio of thiol to amine rate constants (chemoselectivity for thiol-containing groups), and the rate constant for decomposition of the non-bonded conjugation agent in an aqueous environment (aqueous stability). Equations used in the interpretation of kinetic experiments may be found in J. H. Espenson, Chemical Kinetics and Reaction Mechanisms; McGraw-Hill: New York, 1981.
For the reactivity measurements, […] (MESNA) was used as the thiol-containing target, and lysine (Lys) was used as the amine target. The relevant reaction sequences are shown below, where LG is a leaving group, such as a halide, or alternatively a leaving group of the invention (Sx—Rs), such as an N-ethylmercaptotetrazolyl (EMT) group. All reactions were carried out at standard temperature and pressure. [drawing 20]
(§2) The general structure of the conjugation agents used in Example 1 is shown below in formula V, and details of the structure for each conjugation agent are provided in Table 1. […] The selectivity is the ratio of krel(MESNA)/krel(Lys). The lifetime (τ) of a conjugation agent was measured as the time required for loss of about 66% of the starting amount in the solution of 80% phosphate buffer (pH 7)/20% acetonitrile. […] The progress of the reactions was followed by high performance liquid chromatography (HPLC) for up to 1 week. For lifetimes longer than about one week, the values were estimated based on the observed extent of decomposition, where possible. Conjugates labeled “I” are inventive; those labeled “C” are comparative. [drawing 21]
(§3) The hydrolytic stability data was determined as the lifetime (r) as defined above, but in neutral (pH 7) aqueous phosphate buffer. Formulas for comparative conjugation agents C4-C10, and inventive conjugation agents I2-I6, are shown below. [drawing 22] [drawing 23]

[2] = Aqueous stability: lifetime of the non-bonded conjugation agent (hydrolysis), followed by HPLC; format: physicochemical; conditions: Table 2, neutral (pH 7) aqueous phosphate buffer, time for loss of about 66%
Procedure: as §1, §2
Selectivity values were generated using the lowest detection limit of the equipment as the value of krel(Lys).
as §3

[3] = Transamination of I7 with a lysine amide; conditions: ambient temperature, pH 5.65
Excerpt: Inventive conjugation agent I7 is an example of a conjugation agent designed to sequentially link a substrate containing amine groups, such as a support coated with gelatin, to a target containing thiol groups. [drawing 24] I7 was formed by conversion of the carboxylic acid functionality in I5 into a sulfosuccinate ester via standard procedures shown below in Example 3. This provided a functional group that was reactive towards amine groups. Near quantitative reaction of I7 with a corresponding lysine amide was conducted under transamination conditions (ambient temperature, pH 5.65, bimolecular rate constant for transamination, kbi=3.3 M^−1min^−1). This reaction was carried out under mildly acidic conditions to minimize the known competing hydrolysis of the sulfosuccinate ester. The resultant conjugate was called I8.

| SMILES | krel (MESNA) [1] | further results |
| --- | --- | --- |
| C=CS(=O)(=O)CS(=O)(=O)C=C [C9, bis(vinylsulfonyl)methane, reference compound] | 0.7 | Lifetime [2]: 0.75 days |
| CCN1C(=O)C=CC1=O [C10, N-ethylmaleimide, reference compound] | 24.3 | Lifetime [2]: 1 days |
| CCn1nnnc1Sc1cc(C(=O)NCCC(=O)O)c([N+](=O)[O-])cc1[N+](=O)[O-] [I3] | 0.1 |  |
| CCn1nnnc1Sc1c(C(=O)NCCC(=O)O)cc([N+](=O)[O-])cc1[N+](=O)[O-] [I4] | 0.4 | Reactivity towards thiol-containing groups relative to C6 ([1]; Table 2 data): 100 times |
| CCn1nnnc1Sc1c([N+](=O)[O-])cc(C(=O)NCCC(=O)O)cc1[N+](=O)[O-] [I5] | 1.0 | krel(thiol, I5)/krel(thiol, 12) ([1]; ratio of Table 2 krel values): about 125 |
| CCn1nnnc1Sc1cc[n+](Cc2ccccc2)cc1 [I6] | 1.9 | Lifetime ([2]; nd = hydrolysis not detected): 24 days |
| CCn1nnnc1Sc1c([N+](=O)[O-])cc(C(=O)NCCC(=O)ON2C(=O)CC(S(=O)(=O)[O-])C2=O)cc1[N+](=O)[O-].[Na+] (stereo not drawn) [I7] |  | bimolecular rate constant for transamination, kbi [3]: 0.055 M⁻¹ s⁻¹ |
